Measurements taken from US20250313555A1, “2-SUBSTITUTED THIAZOLE AND BENZOTHIAZOLE COMPOSITIONS AND METHODS AS DUX4 INHIBITORS” (ALTAY THERAPEUTICS, INC., priority 2022, published 2025).

Legend:
Assay type in all cases: cell-based
[1] = Cell cytotoxicity 50 assay (CC50), MB200 cells, cell titer glo; conditions: human
Description: Cell Cytotoxicity 50 Assay Protocol (CC50) MB200 cells were grown until 80% confluent in F10 media supplemented with rhFGF basic (10 ng/ml), 15% fetal bovine serum, 1% penicillin streptomycin, 1% amphotericin B, and 1 μM dexamethasone. Adherent MB200 cells growing on 10 cm plate were then trypsinized with 1 ml of trypsin. Once the cells detached from the plate, F10 media (10 mL) was added, and the cells were strained through a 70 μm cell strainer. The cells were counted using a mixture of 10 μL cell suspension with 10 μL of trypan blue. Once the total number of cells were counted, a dilution of 200 k/mL was prepared, and the cells were seeded with 10 k cells/well in a 96-well plate in triplicate, making sure to avoid seeding cells in the edges of the plate to avoid edge effects. Using a multichannel pipet, the 200 k/mL cell dilution (50 μL/well) was added into wells B2-B11, C2-C11, and D2-D11 in triplicate. Into a deep well block (DWB), the media for the appropriate cell line (450 μL/well) was added into wells 1-10. Into DWB well 2, 10 mM of drug solution (13.5 μL) was added, followed by an additional volume of the medium (225 μL). The well was pipetted up/down four times. A portion (225 μL) was transferred to well 3, and this process was repeated up to well 10. Using a multichannel pipet, a smaller portion (50 μL/well) was removed from all wells in the DWB and then dispensed on top of the cells in each corresponding row. After adding the drug, the plate was incubated at 37° C. for 72 h. Using a multi-channel pipet, pre-warmed cell titer glo reagent (Promega) (100 μL) was added into every well. After 5 minutes, the total luminescence was measured with a luminometer. CC50 was determined with GraphPad prism template.

MBD3L2 RNA = experiment: RNA isolation and qPCR to determine MBD3L2 RNA levels in FSHD cells; conditions: 48 hrs
Description: Protocol for RNA Isolation and qPCR to Determine MBD3L2 RNA Levels The protocol describes the process of isolating RNA from cultured cells, converting the RNA to complementary DNA (cDNA), and measuring target gene expression using a quantitative polymerase chain reaction (qPCR). The seed FSHD cells were dispensed into a six-well dish. One day after seeding, the DUX4 inhibitor (11 μM or 3.6 μM/well) was added to the cells. After another 48 hrs, the old media was removed from the cells. The cells were washed with 2 mL of warm phosphate buffered saline (PBS). The PBS was aspirated, and the cells were lysed in each well with 350 μL of RLT buffer+3.5 μL of beta-mercaptoethanol (BME). The lysates were added to fresh, RNAse-free, labeled Eppendorf tubes. The cells were then physically disrupted for […] at level 4 of the bead disrupter to ensure the release of the RNA. The RNA was collected according to standard procedures (i.e., Qiagen kit instructions) as discussed below. The RNA concentrations were standardized to […]. In a PCR tube, RNA (2 μg) in a new Eppendorf tube was diluted with RNase-free water to a 9.5 μL final volume of […] RNA. DNase was used to remove any DNA contamination. A DNase Master Mix was prepared from 1.5 μL/reaction DNase solution (1 unit/μL, Promega), 3 μL/reaction 5× RT buffer (i.e., 250 mM Tris-HCl (pH 8.3), 375 mM KCl, 15 mM MgCl2, and 500 μl 0.1 M DTT; Promega MMLV), and 1 μL/reaction RNase inhibitor solution (RNasin, 40 units/μL, Promega). The DNase Master Mix was added to the standardized RNA samples (5.5 μL/sample). The samples were mixed by agitation and briefly spun down by centrifuge. The samples were heated to 37° C. for 60 min, 80° C. for 5 min, and then cooled to 4° C. The samples were stored on ice until the addition of the next reagents. An RT Reaction Master Mix was prepared from 5 μL/reaction 5× RT buffer, 2 μL/reaction dNTP solution (2.5 mM in each nucleotide), 1 μL/reaction RNase inhibitor solution (RNasin, 40 units/μL, Promega), 1.6 μL/reaction M-MLV reverse transcriptase (200 units/μL, Promega), and 13.4 μL/reaction deionized, RNase-free water. The RT Reaction Master Mix was cooled on ice until use. A 50 μM solution of Random Primer 6 random hexanucleotides (2 μL) was added to each sample. The samples were mixed by agitation and briefly spun down by centrifuge. The samples were heated to 70° C. for 5 min and then cooled to 4° C. The RT Reaction Master Mix (23 μL) was added to each sample. The samples were mixed by agitation and briefly spun down by centrifuge. To convert the RNA to cDNA, the samples were heated to 42° C. for 60 min, 95° C. for 5 min, and then cooled to 4° C. The cDNA product mixture was diluted 5:1 with deionized water (40 μL+160 μL). The samples were run in triplicate, with a methyl-CpG-binding protein 3-like 2 (MBD3L2) target primer and a eukaryotic translation elongation factor 1-alpha (EEF1A) control primer. An qPCR Master Mix was prepared for each primer and stored on ice (4° C.) until use. The qPCR Master Mix included 10 μL/reaction SYBR Green Mix (2×) (ThermoFisher), 1 μL/reaction of the primer mix (i.e., the MBD3L2 PCR Primer mix or the EEF1A Primer mix), and 4 μL/reaction deionized, RNase-free water. To set up the qPCR plate, 15 μL of the appropriate qPCR Master Mix was added to the appropriate wells for each target/primer. After all the targets/primers have been added to the wells, 5 μL of the sample was added to the corresponding wells so that each well is 20 μL total. The plate was covered with a clear sheet. An qPCR run was set up (QuantStudio 5) with the following cycle: […]

[2] = Cell cytotoxicity 50 assay (CC50), HEK cells; conditions: human
Description: Cell Cytotoxicity 50 Assay Protocol (CC50) Into a deep well block (DWB), the media for the appropriate cell line (450 μL/well) was added into wells 1-10. Into DWB well 2, 10 mM of drug solution (13.5 μL) was added, followed by an additional volume of the medium (225 μL). The well was pipetted up/down four times. A portion (225 μL) was transferred to well 3, and this process was repeated up to well 10. Using a multichannel pipet, a smaller portion (50 μL/well) was removed from all wells in the DWB and then dispensed on top of the cells in each corresponding row. After adding the drug, the plate was incubated at 37° C. for 72 h. Using a multi-channel pipet, pre-warmed cell titer glo reagent (Promega) (100 μL) was added into every well. After 5 minutes, the total luminescence was measured with a luminometer. CC50 was determined with GraphPad prism template.

| SMILES | CC50 at 72 h [1] | qPCR MBD3L2 Inhib at 11 µM (MBD3L2 RNA) | CC50 at 72 h [2] |
| --- | --- | --- | --- |
| CC(=O)NC/C=C/C(=O)Nc1ccc(-c2nc3ccccc3s2)cc1 [Compound 77] | > 10 µM | YES | > 10 µM |
| O=C(CCCc1cnco1)Nc1ccc(-c2nc3ccccc3s2)nc1 [Compound 81] | > 10 µM | YES | > 10 µM |
| O=C(CCc1cccnc1)Nc1ccc(-c2nc3ccccc3s2)nc1 [Compound 83] | > 10 µM | YES | > 10 µM |
| CC(=O)NCCCC(=O)Nc1ccc(-c2nc3cc(F)c(F)cc3s2)cc1 [Compound 84] | > 10 µM | YES | > 10 µM |
| CC(=O)NC1CCC(C(=O)Nc2ccc(-c3nc4ccccc4s3)cc2)C1 (stereo not drawn) [Compound 85] | > 10 µM | YES | > 10 µM |
| CC(=O)NC1CC(C(=O)Nc2ccc(-c3nc4ccccc4s3)cc2)C1 (stereo not drawn) [Compound 86] | > 10 µM | YES | > 10 µM |
| CC(=O)NCCCC(=O)Nc1ccc(C(C)(C)c2nc3ccccc3s2)cc1 [Compound 87] | > 10 µM | YES | > 10 µM |
| O=C(CCCN1C(=O)CCC1=O)Nc1ccc(-c2nc3c(s2)CCCC3)cc1 [Compound 88] | > 10 µM | YES | > 10 µM |
| O=C(CCCN1C(=O)CCC1=O)NCc1ccc(-c2nc3ccccc3s2)cc1 [Compound 93] | > 10 µM | YES | > 10 µM |
| O=C(Nc1ccc(-c2nc3ccccc3s2)cc1)C1CCC(N2C(=O)CCC2=O)C1 (stereo not drawn) [Compound 94] | > 10 µM | YES | > 10 µM |
| CC(=O)NCCC(=O)Nc1ccc(-c2nc3cc(C#N)ccc3s2)cc1 [Compound 103] | > 10 µM | YES | > 10 µM |
| CC(=O)NC(C)(C)/C=C/C(=O)Nc1ccc(-c2nc3ccccc3s2)cc1 [Compound 104] | > 10 µM | YES | > 10 µM |
| CC(=O)NCCCC(=O)NCc1ccc(-c2nc3ccccc3s2)cc1 [Compound 105] | > 10 µM | YES | > 10 µM |
| O=C(CCCN1CCCC1=O)NCc1ccc(-c2nc3ccccc3s2)cc1 [Compound 109] | > 10 µM | YES | > 10 µM |
| CC(=O)NCCNC(=O)Cc1ccc(-c2nc3cc(F)ccc3s2)cc1 [Compound 111] | > 10 µM | YES | > 10 µM |
| O=C(CCCN1CCCC1=O)Nc1ccc(-c2nc3cc(F)ccc3s2)cc1 [Compound 116] | > 10 µM | YES | > 10 µM |
| CC(=O)NCCCC(=O)Nc1ccc(-c2nc3ccccc3s2)c(C)c1 [Compound 129] | > 10 µM | YES | > 10 µM |
| CC(=O)NCCCC(=O)Nc1ccc(-c2nc(-c3ccccc3)cs2)cc1 [Compound 130] | > 10 µM | YES | > 10 µM |
| O=C(CCCCc1cccnc1)Nc1ccc(-c2nc3ccccc3s2)cc1 [Compound 140] | > 10 µM | YES | > 10 µM |
| CN(C(=O)CCCN1C(=O)CCC1=O)c1ccc(-c2nc3ccccc3s2)cc1 [Compound 141] | > 10 µM | YES | 1 to 10 µM |
| CC(=O)NCCCC(=O)N(C)c1ccc(-c2nc3ccccc3s2)cc1 [Compound 142] | > 10 µM | YES | > 10 µM |
| CC(=O)NCCCC(=O)N(C)c1ccc(-c2nc3cc(F)ccc3s2)cc1 [Compound 145] | > 10 µM | YES | > 10 µM |
| O=C(CCCc1cccnc1)Nc1ccc(-c2nc3cc(F)ccc3s2)cc1 [Compound 155] | > 10 µM | YES | 1 to 10 µM |
| O=C(CCCc1cccnc1)Nc1ccc(-c2nc3ccccc3s2)nc1 [Compound 156] | > 10 µM | YES | > 10 µM |
| O=C(CCCCN1C(=O)CCC1=O)Nc1ccc(-c2nc3ccccc3s2)o1 [Compound 167] | > 10 µM | YES | > 10 µM |
| CC(=O)NCCCC(=O)Nc1ccc(CCc2nc3ccccc3s2)cc1 [Compound 174] | > 10 µM | YES | > 10 µM |
| CC(=O)NCCCCC(=O)Nc1ccc(-c2nc3ccccc3s2)o1 [Compound 175] | > 10 µM | YES | > 10 µM |
| CC(=O)N[C@H]1CC[C@H](C(=O)Nc2nc3ccccc3s2)C1 [Compound 184] | > 10 µM | YES | > 10 µM |
